Source: US6455578B1, “Aromatic derivatives and iron complexes thereof for the use as normalizing agents of the iron level” (Laboratoire Medidom S.A., priority 1998, dated 2002)

Columns and labels:
[1] = Partition test between n-octanol and aqueous solution pH 7.4; format: physicochemical; settings: for partition between n-octanol and aqueous solution (result in words): n-octanol / aqueous 20 mM tris(hydroxymethyl)aminomethane chlorhydrate pH 7.4, Example 7: concentration 100 mM
Protocol: In particular, partition experiments have been carried out between n-ottanol and an aqueous solution 20 mM of tris(hydroxymethyl)aminomethane chlorohydrate brought to pH=7.4 by adding sodium phosphate, obtaining values of the ripartition coefficient, expressed as the ratio between the concentration of the compound in the organic phase and that in the aqueous phase, tipically higher than 20, for the present formula (I) compounds as well as for the Fe (III) complexes thereof.
The partition coefficient between n-octanol and an aqueous solution 20 mM of tris(hydroxymethyl)aminomethane brought to pH=7.4 by the addition of sodium phosphate has been determined by spectrophotometry at room temperature for 3-hydroxy-2-methyl-4H-1-benzopyran-4-one and for the related Fe(III) complex.
In the aqueous solution the 3-hydroxy-2-methyl-4H-1-benzopyran-4one obtained as described in Example 1 was dissolved in the quantity sufficient to have a concentration equal to 10^−4 M. 5 ml of said solution were centrifuged with 5 ml of n-octanol, and the two resulting phases were separated for a concentration determination on each by spectrophotometry.
The partition coefficient, expressed as the ratio between the concentration of the compound in n-octanol and its concentration in the aqueous solution, resulted 24. In the same aqueous solution above described the Fe(III) complex obtained as in Example 4 was dissolved, in the sufficient quantity to obtain a concentration equal to 2×10^−4 M. 5 ml of said solution are centrifuged with 5 ml of n-octanol, then the two resulting phases were separated for a concentration determination on each by spectrophotometry. A partition coefficient equal to 25 was obtained.
According to the procedure described in Example 6 partition data were determined between n-octanol and an aqueous solution 20 mM of tris(hydroxymethyl)aminomethane chlorhydrate brought to pH 7.4 by addition of sodium phosphate, for 3-hydroxy-2-(5-hydroxypentyl)-4H-1-benzopyran-4-one prepared as in Example 3 as well as for the related Fe(III) complex prepared as in Example 5.
In the aqueous solution 3-hydroxy-2-(5-hydroxypentyl)-4H-1-benzopyran-4-one as prepared in Example 3 was dissolved so to obtain a concentration equal to 100 mM. 5 ml of said solution were centrifuged with 5 ml of n-octanol, then the two resulting phases, the aqueous and the organic one, were separated for a concentration determination on each by spectrophotometry.
The same experiment was repeated by dissolving the Fe(III) complex prepared as in Example 5 in the above described aqueous solution.

erythrocytes = test: In vitro tests on permeation into erythrocytes; format: in vitro ADME, rat; settings: for found in the aqueous medium containing the phosphate buffer after resuspension of loaded erythrocytes: loaded erythrocytes resuspended in fresh buffer; for found in the aqueous medium containing the phosphate buffer after resuspension of loaded erythrocytes / found in the plasmatic medium after resuspension of loaded erythrocytes / distribution between previously overloaded erythrocytes and the aqueous medium of resuspension: further 30 minutes at 37 C; for found in the plasmatic medium after resuspension of loaded erythrocytes: loaded erythrocytes resuspended in their plasma; for distribution between previously overloaded erythrocytes and the aqueous medium of resuspension: loaded erythrocytes resuspended in fresh plasma or fresh buffer; for time in which a balance between intracellular and extracellular environment is reached: rat erythrocytes
Protocol: Solutions of 3-hydroxy-2-methyl-4H-1-benzopyran-4-one prepared as in Example 1 and the related Fe(III) complex obtained in acetone as in Example 4 were used for suitable sampling in incubation flasks. For the complex acetone is evaporated, and the biologic samples are then added to the residue. Whole blood of rat deprived of leucocytes, or alternatively erythrocytes washed and resuspended in 127 mM of sodium phosphate 50% buffer (pH=7.4) and containing 23 mM of NaCl, were added into the incubation flasks and incubated at 37° C. for 15 and respectively 30 minutes.
At those times erythrocytes were separeted by centrifugation and separately extracted together with the supernatants with 2 volumes of ethyl acetate. The related quantities of the tested substances were measured by spectrophotometry in ethyl acetate and compared with suitable standards. After 30 minutes of incubation the 3-hydroxy-2-methyl-4H-1-benzopyran-4-one as well as the related Fe(III) complex were found in the erythrocytes for 51% and for 49% in the aqueous medium. After 30 minutes of incubation 50% of the sedimented erythrocytes are resuspended in their fresh plasma and the remaining 50% in fresh buffer.
Erhytrocytes of rat were separated from their plasma deprived of leucocytes. Part of the erythrocytes were resuspended in sodium phosphate 50% buffer (pH=7.4), and another part of the erythrocytes were joined to part of their plasma so to obtained a 50% hematocrit. To both suspensions were added alternatively 100 mg/l of 3-hydroxy-2-(5-hydroxypentyl)-4H-benzopyran-4-one prepared as in Example 3 and 50 mg/l of the related Fe(III) complex prepared as in Example 5, and the incubation was made at 37° C. After 30 minutes the erythrocytes were separated by centrifugation and extracted separately together with supernatants with ethyl acetate. The quantities of the tested substances were measured by spectrophotometry in ethyl acetate and compared to suitable standards.
After 30 minutes incubation the 40% of 3-hydroxy-2-(5-hydroxypenthyl)-4H-1-benzopyran-4-one, as well as of the ferric complex thereof, were found in the erythrocytes and the remaining 60% in the medium represented by plasma. When the medium is the phosphate buffer the 60% of the tested compounds were found in erythrocytes and the remaining 40% in the medium.
After sedimentation 50% of the erythrocytes containing the tested compounds was resuspended in their plasma and the remaining 50% in fresh buffer. After a further 30 minutes incubation at 37° C. 60% of 3-hydroxy-2-(5-hydroxypentyl)-4H-1-benzopyran-4-one and of the related complex were found in the plasmatic medium and the remaining 40% in the aqueous medium containing the phosphate buffer. Therefore the chelating agent as well as the related ferric complex do permeate into cellular membranes in both directions, and are uniformly distributed in the intracellular and in the extracellular environment.

[2] = In vivo tests on permeation of rat erythrocytes / detection in rat tissues and excretion; settings: for Qualitative detection in Erythrocytes / Qualitative detection in Plasma / Qualitative detection in Brain / Qualitative detection in Liver / Qualitative detection in Urine: rat, single oral dose 20 mg per Kg
Protocol: The tests are performed on male rats Sprague-Dawley weighting from 250 to 300 g.
The chelating agent 3-hydroxy-2-methyl-4H-1-benzopyran-4-one prepared as in Example 1, vehiculated by 4 parts of β-cyclodextrine for each part of chelating agent, is administered to the rats in a single oral dose comprising 20 mg of chelating agent per Kg of body weight.
The chelating agent 3-hydroxy-2-(5-hydroxypentyl)-4H-1-benzopyran-4-one prepared as in Example 3 is administered to the rats in a single oral dose, comprising 2% of methyl cellulose and 20 mg of chelating agent per Kg of body weight.

[3] = In vivo tests on permeation of rat erythrocytes / detection in rat tissues and excretion; settings: rats, 20 mg per Kg in DMSO by intraperitoneal route; 15, 30 and 60 minutes after treatment
[4] = Stability constant of the Fe(III) complex by cyclic voltammetry; format: physicochemical
Protocol: wherein R5 is CH3, has been measured by voltammetry with a Pt electrode as the working electrode and with a calomel electrode as the reference electrode, obtaining a stability constant equal to 3.0×10^10.
The complexation cynetics has been moreover studied by cyclic voltammetry with a Pt electrode as the working electrode and a calomel electrode as the reference electrode, in the following conditions:ferric perchlorate (7 mg) is dissolved in 20 ml of a NaCl solution 150 mM containing 5% of DMSO, and this solution is put into the voltammetric cell for the plot registration; from this plot the half-wave potential for the ferric salt can be deduced: (E½)s Fe^3+/Fe^2+=0.420 V.
3-hydroxy-2-methyl-4H-1-benzopyran-4-one (10.5 mg) is dissolved in DMSO (3 ml), and with the so obtained solution 4 additions are made to the voltammetric cell, registering the cyclic voltammetric plot after every addition. […]
The stability constant of the complex is calculated according to the following formula: [formula]
wherein (E½)s e (E½)c are the half-wave potential of the salt and, respectively, of the complex above reported, n is the number of electrons, β is the stability constant of the complex and c is its concentration, and p is the number of chelating agent molecules in the complex. The so calculated value of the stability constant is […].

[5] = medium phosphate buffer pH 7.4, 37 C, 30 minutes, 100 mg/l ligand or 50 mg/l complex
[6] = medium plasma, 50% hematocrit, 37 C, 30 minutes, 100 mg/l ligand or 50 mg/l complex
[7] = rat whole blood deprived of leucocytes or washed erythrocytes in phosphate buffer pH 7.4, 37 C, 30 minutes incubation
[8] = male Sprague-Dawley rats, single oral dose 20 mg per Kg with beta-cyclodextrine

O=c1c(O)c(CCCCCO)oc2ccccc12 [3-hydroxy-2-(5-hydroxypentyl)-4H-1-benzopyran-4-one]
partition between n-octanol and aqueous solution (result in words) [1]: completely pass in the alcoholic phase | found in the aqueous medium containing the phosphate buffer after resuspension of loaded erythrocytes (erythrocytes): 40% | found in the plasmatic medium after resuspension of loaded erythrocytes (erythrocytes): 60% | found in erythrocytes (erythrocytes; [5]): 60% | found in the medium (erythrocytes; [5]): 40% | found in the erythrocytes (erythrocytes; [6]): 40% | found in the medium (erythrocytes; [6]): 60% | presence in urine ([2]; male Sprague-Dawley rats, single oral dose 20 mg per Kg in 2% methyl cellulose, 12, 24 and 48 hours from administration): has been revealed | presence in plasma ([2]; rats, 20 mg per Kg in DMSO by intraperitoneal route, 15, 30 and 60 minutes after treatment): has been revealed | melting point: 111 to 112 °C | presence in erythrocytes [3]: has been revealed

Cc1oc2ccccc2c(=O)c1O [3-hydroxy-2-methyl-4H-1-benzopyran-4-one]
logD ([1]; n-octanol / aqueous 20 mM tris(hydroxymethyl)aminomethane pH 7.4, room temperature, spectrophotometry, ligand 10^-4 M, complex 2x10^-4 M, read-out: partition coefficient (concentration in n-octanol / concentration in aqueous solution) (converted)): 1.38 | distribution between previously overloaded erythrocytes and the aqueous medium of resuspension (erythrocytes): equally distributed | time in which a balance between intracellular and extracellular environment is reached (erythrocytes; 37 C): ca. 30 minutes | found in the aqueous medium (erythrocytes; [7]): 49% | found in the erythrocytes (erythrocytes; [7]): 51% | presence in urine (onset) [2, 8]: starting from twenthyfourth hour | time of maximum presence (erythrocytes, brain and liver) [2, 8]: maximum in the fourth hour | presence in erythrocytes, brain and liver (first detection) ([2]; male Sprague-Dawley rats, single oral dose 20 mg per Kg with beta-cyclodextrine, spectrophotometry and fluorimetry): found already in the first hour | Qualitative detection in Erythrocytes ([2]; 1/2 hr after administration): p(+) | Qualitative detection in Plasma ([2]; 1/2 hr after administration): p(+) | Qualitative detection in Brain ([2]; 1 hr after administration): p(+) | Qualitative detection in Erythrocytes ([2]; 1 hr after administration): p(++) | Qualitative detection in Liver ([2]; 1 hr after administration): p(+) | Qualitative detection in Plasma ([2]; 1 hr after administration): p(++) | Qualitative detection in Brain ([2]; 4 hr after administration): p(++) | Qualitative detection in Erythrocytes ([2]; 4 hr after administration): p(+++) | Qualitative detection in Liver ([2]; 4 hr after administration): p(+++) | Qualitative detection in Plasma ([2]; 4 hr after administration): p(++) | Qualitative detection in Urine ([2]; 4 hr after administration): p(+) | Qualitative detection in Brain ([2]; 24 hr after administration): p(++) | Qualitative detection in Liver ([2]; 24 hr after administration): p(++) | Qualitative detection in Urine ([2]; 24 hr after administration): p(++) | Qualitative detection in Urine ([2]; 48 hr after administration): p(+++) | melting point: 179 to 180 °C

Fe(III) complex of 3-hydroxy-2-(5-hydroxypentyl)-4H-1-benzopyran-4-one
partition between n-octanol and aqueous solution (result in words) [1]: completely pass in the alcoholic phase | found in the aqueous medium containing the phosphate buffer after resuspension of loaded erythrocytes (erythrocytes): 40% | found in the plasmatic medium after resuspension of loaded erythrocytes (erythrocytes): 60% | found in erythrocytes (erythrocytes; [5]): 60% | found in the medium (erythrocytes; [5]): 40% | found in the erythrocytes (erythrocytes; [6]): 40% | found in the medium (erythrocytes; [6]): 60%

Fe(III) complex of 3-hydroxy-2-methyl-4H-1-benzopyran-4-one
half-wave potential of the complex (E1/2) Fe3+/Fe2+ ([4]; cyclic voltammetry, after first addition of 0.5 ml chelating agent solution in DMSO): 0.120 V | stability constant of the Fe(III) complex ([4]; voltammetry, Pt working electrode, calomel reference electrode, NaCl 150 mM containing 5% DMSO): 3.0×10^10 | partition coefficient (concentration in n-octanol / concentration in aqueous solution) ([1]; n-octanol / aqueous 20 mM tris(hydroxymethyl)aminomethane pH 7.4, room temperature, spectrophotometry, ligand 10^-4 M, complex 2x10^-4 M): 25 | distribution between previously overloaded erythrocytes and the aqueous medium of resuspension (erythrocytes): equally distributed | time in which a balance between intracellular and extracellular environment is reached (erythrocytes; 37 C): ca. 30 minutes | found in the aqueous medium (erythrocytes; [7]): 49% | found in the erythrocytes (erythrocytes; [7]): 51%
